Source: patent US20240228493A1, “LRRK2 INHIBITORS AND USES THEREOF” (NEURON23, ICN., priority 2022, published 2024)

Key:
[1] = target: T1, wt human LRRK2, catalytic site (Homo sapiens, UniProt Q5S007); test: TR-FRET LanthaScreen Tb Kinase Activity Assay, LRRK2 inhibition; format: biochemical; conditions: 2 nM wt human LRRK2, 400 nM peptide, 38 μM ATP
T1 construct: wt human LRRK2, catalytic site, catalytic site (ThermoFisher/USA); purchased ThermoFisher
Summary of the method: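 Fluorescein-ERM (LRRKtide) peptide (400 nM) phosphorylated by 2 nM wt human LRRK2 catalytic site with 38 μM ATP in 1× Kinase Buffer A, 120 min at room temperature after 15 min compound–kinase preincubation. EDTA plus Tb-anti-pLRRKtide antibody added, read after 60 min; inhibition from TR-FRET emission ratios.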

Caco-2 cells = test: Caco-2 bidirectional permeability; format: in vitro ADME; conditions: for Caco-2 ER: Efflux Ratio=Papp(BA)/Papp(AB); for Caco-2 A2B (10^−6 cm/s): apical to basolateral; for Caco-2 A2B (10^−6 cm/s) / Caco-2 B2A (10^−6 cm/s): 2 hours, pH 7.4; for Caco-2 B2A (10^−6 cm/s): basolateral to apical
Summary of the method: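 Caco-2 monolayers were grown 21–28 days on PET inserts and run in duplicate in HBSS with 10 mM HEPES, pH 7.4. Test compound was dosed bidirectionally at […] for 2 h at 37 °C; quantification was by LC-MS/MS. Papp and efflux ratio (B-A/A-B) were calculated, with lucifer yellow monolayer integrity checks.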

[2] = Human liver microsomal clearance (hLM Cl); format: in vitro ADME; conditions: values marked *: human liver microsomal Clearance

T1 sequence (Q5S007 1879-2138 limits assumed): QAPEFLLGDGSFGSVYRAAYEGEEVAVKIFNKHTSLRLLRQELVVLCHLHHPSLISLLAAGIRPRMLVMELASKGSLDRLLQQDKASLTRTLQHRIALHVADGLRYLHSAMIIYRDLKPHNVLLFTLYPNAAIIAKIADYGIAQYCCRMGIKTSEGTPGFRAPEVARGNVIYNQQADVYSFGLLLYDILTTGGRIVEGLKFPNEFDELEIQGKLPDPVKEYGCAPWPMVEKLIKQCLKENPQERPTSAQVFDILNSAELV

SMILES | IC50 [1] | Caco-2 ER (Caco-2 cells) | Caco-2 A2B (10^−6 cm/s) (Caco-2 cells) | Caco-2 B2A (10^−6 cm/s) (Caco-2 cells) | hLM Cl (mL/min/kg) [2]
Cc1n[nH]c2c1N=C(c1c(F)cccc1F)Nc1cnc(N3CCC[C@@](C)(C#N)C3)cc1-2 (single isomer, unassigned) [Example 12] | < 1 nM | L (L (Likely)”: ER≥2.5) | M (M (Moderate permeability)”: 1≤A2B (B2A)≤5) | H (H (High permeability)”: A2B (B2A)>5) | L* (L (Low Cl)”: Hep Cl (mL/min/kg)<6.3)
Fc1cccc(F)c1C1=Nc2cn[nH]c2-c2cc(N3CC[C@@H](C(F)F)C3)ncc2N1 (single isomer, unassigned) [Example 34] | < 1 nM | L (L (Likely)”: ER≥2.5) | M (M (Moderate permeability)”: 1≤A2B (B2A)≤5) | H (H (High permeability)”: A2B (B2A)>5) | I* (I (Intermediate Cl)”: 6.3≤Hep Cl (mL/min/kg)≤14.7)
Cc1n[nH]c2c1N=C(c1c(F)cccc1F)Nc1cnc(N3CCC(C)(C#N)CC3)cc1-2 [Example 17, 1-[8-(2,6-difluorophenyl)-5-methyl-3,4,7,9,12-pentazatricyclo[8.4.0.02,6]tetradeca-1(10),2(6),4,7,11,13-hexaen-13-y1]-4-methyl-piperidine-4-carbonitrile] | 1 to 100 nM | L (L (Likely)”: ER≥2.5) | H (H (High permeability)”: A2B (B2A)>5) | H (H (High permeability)”: A2B (B2A)>5) | I* (I (Intermediate Cl)”: 6.3≤Hep Cl (mL/min/kg)≤14.7)
Cc1n[nH]c2c1N=C(c1c(F)cccc1F)Nc1c-2cc(N2CCN(CCCF)CC2)nc1C [Example 32, 8-(2,6-difluorophenyl)-13-[4-(3-fluoropropyl)piperazin-1-y1]-5,11-dimethyl-3,4,7,9,12-pentazatricyclo[8.4.0.02,6]tetradeca-1(10),2(6),4,7,11,13-hexaene] | < 1 nM | L (L (Likely)”: ER≥2.5) | M (M (Moderate permeability)”: 1≤A2B (B2A)≤5) | H (H (High permeability)”: A2B (B2A)>5) | L* (L (Low Cl)”: Hep Cl (mL/min/kg)<6.3)
Cc1n[nH]c2c1N=C(c1c(F)cccc1F)Nc1c-2cc(N2CCOC3(COC3)C2)nc1C [Example 38, 8-(5-(2,6-difluorophenyl)-3,7-dimethyl-1,6-dihydropyrazolo[4,3-d]pyrido[4,3-f][1,3]diazepin-9-yl)-2,5-dioxa-8-azaspiro[3.5]nonane] | < 1 nM | L (L (Likely)”: ER≥2.5) | M (M (Moderate permeability)”: 1≤A2B (B2A)≤5) | H (H (High permeability)”: A2B (B2A)>5) | L* (L (Low Cl)”: Hep Cl (mL/min/kg)<6.3)
Cc1n[nH]c2c1N=C(c1c(F)cccc1F)Nc1cnc(N3CCC4(CC3)COC4)cc1-2 [Example 42, 7-(5-(2,6-difluorophenyl)-3-methyl-1,6-dihydropyrazolo[4,3-d]pyrido[4,3-f][1,3]diazepin-9-yl)-2-oxa-7-azaspiro[3.5]nonane] | 1 to 100 nM | L (L (Likely)”: ER≥2.5) | M (M (Moderate permeability)”: 1≤A2B (B2A)≤5) | H (H (High permeability)”: A2B (B2A)>5) | L* (L (Low Cl)”: Hep Cl (mL/min/kg)<6.3)
Cc1nc(N2CC3(COC3)C2)cc2c1NC(c1c(F)cccc1F)=Nc1cn[nH]c1-2 [Example 43, 6-(5-(2,6-difluorophenyl)-7-methyl-1,6-dihydropyrazolo[4,3-d]pyrido[4,3-f][1,3]diazepin-9-y1)-2-oxa-6-azaspiro[3.3]heptane] | 1 to 100 nM | L (L (Likely)”: ER≥2.5) | M (M (Moderate permeability)”: 1≤A2B (B2A)≤5) | H (H (High permeability)”: A2B (B2A)>5) | L* (L (Low Cl)”: Hep Cl (mL/min/kg)<6.3)
Cc1n[nH]c2c1N=C(c1c(F)cccc1F)Nc1c-2cc(N2CCO[C@H]([C@@H](C)O)C2)nc1C [Example 45, (R)-1-((S)-4-(5-(2,6-difluorophenyl)-3,7-dimethyl-1,6-dihydropyrazolo[4,3-d]pyrido[4,3-f][1,3]diazepin-9-yl)morpholin-2-yl)ethan-1-ol] | 1 to 100 nM | L (L (Likely)”: ER≥2.5) | L (L (Low permeability)”: A2B (B2A)<1) | H (H (High permeability)”: A2B (B2A)>5) | L* (L (Low Cl)”: Hep Cl (mL/min/kg)<6.3)
Cc1n[nH]c2c1N=C(c1c(F)cccc1F)Nc1c-2cc(N2CCS(=O)(=O)CC2)nc1C [Example 46, 4-(5-(2,6-difluorophenyl)-3,7-dimethyl-1,6-dihydropyrazolo[4,3-d]pyrido[4,3-f][1,3]diazepin-9-yl)thiomorpholine 1,1-dioxide] | < 1 nM | L (L (Likely)”: ER≥2.5) | L (L (Low permeability)”: A2B (B2A)<1) | H (H (High permeability)”: A2B (B2A)>5) | L* (L (Low Cl)”: Hep Cl (mL/min/kg)<6.3)
Cc1n[nH]c2c1N=C(c1c(F)cccc1F)Nc1cnc(N3CCC(C#N)CC3)cc1-2 [Example 48, 1-(5-(2,6-difluorophenyl)-3-methyl-1,6-dihydropyrazolo[4,3-d]pyrido[4,3-f][1,3]diazepin-9-yl)piperidine-4-carbonitrile] | 1 to 100 nM | L (L (Likely)”: ER≥2.5) | M (M (Moderate permeability)”: 1≤A2B (B2A)≤5) | H (H (High permeability)”: A2B (B2A)>5) | I* (I (Intermediate Cl)”: 6.3≤Hep Cl (mL/min/kg)≤14.7)
